Source: patent US6489292B1, “Stable aqueous insulin preparations without phenol and cresol” (Novo Nordisk A/S, priority 1998, dated 2002)

Columns and labels:
human insulin [1] = target: T1, human insulin (Homo sapiens, UniProt P01308); assay: Physical stability of insulin solution at 5° C. by visual inspection for precipitation; format: physicochemical; conditions: 0.5 Zn2+/insulin, NaCl 15 mM, glycylglycine 7 mM, tween 20 0.01%, pH 7.5
T1 construct: Insulin derivatives having truncations in the C-terminal of the B-chain; deamidations at A18, A21 and B3
Protocol: (§1) 27.5 ml of a 21 mM insulin stock solution was made by dissolving 3.707 g zinc free human insulin in 14 ml water and adding 2888 μl of 0.1 M ZnCl2 and 7 ml water before adjusting pH to 7.5 by 0.2 M NaOH and finally adding water to 27.5 ml, calculating the specific volume of insulin as 0.7 μl/mg. The stock solution was filtrated. A preparation of 3.5 ml 15 mM insulin was then made by adding 23 μl 2.3 M stabiliser in ethanol, 49 μl 0.5 M glycylglycine and 35 μl 1% Tween 20 and water to 3.5 ml. The solution was thereafter diluted with medium containing sodium chloride 15 mM, glycylglycine 7 mM, Tween 20 0.01%, pH 7.5 to 12, 9, 6, 3 and 0.6 mM insulin and stored at 5° C. for visual inspection. The reference solution was made by the same way but without adding a stabiliser. The chemical stability of the insulin solutions were followed at 37° C. for two concentrations, 3 and 15 mM, by determination of covalent insulin polymer by size exclusion chromatography. […] Detection was performed with a tunable absorbance detector (Waters 486) at 276 nm. Injection volume were […] for 3 and 15 mM insulin solutions, respectively.
(§2) 3.26 g human insulin (0.4 equivalent Zn^2+ per insulin) was dispersed in water in 18 ml water on icebath and added 490 μl 0.5 M glycylglycine and 1628 μl sodium hydroxide (3.1 equivalent) and stirred slowly overnight at 5° C. 613 μl 0.1 M zinc chloride (0.1 equivalent of zinc) was then added the solution, pH adjusted to 7.5 by 410 μl 1 M hydrochloric acid (0.8 equivalent of chloride) and the volume adjusted to 25 ml by water. Finally the stock solution of 21 mM insulin was filtrated. 3.57 ml of the stock solution was added 50 μl 1% tween 20, 750 μl 0.1 M stabiliser and 630 μl water to obtain 5 ml 15 mM insulin formulation. Finally the preparation was diluted with medium containing sodium chloride, glycylglycine and detergent to obtain 12, 9, 6, and 3 mM of human insulin and stored at 5° C. for visual inspection. The chemical stability of 3 and 15 mM insulin solutions were followed at 37° C. by determination of covalent insulin polymer by size exclusion chromatography.

human insulin [2] = target: T1, human insulin; assay: Chemical stability at 37° C.: covalent insulin polymer by size exclusion chromatography; format: physicochemical; conditions: stabiliser equimolar to insulin, 0.5 Zn2+/insulin, NaCl 15 mM, glycylglycine 7 mM, tween 20 0.01%, pH 7.5
Protocol: as §1, §2

[3] = example 1, stabiliser equimolar to insulin
[4] = example 2, stabiliser equimolar to insulin

T1 sequence (P01308 25-54 limits assumed): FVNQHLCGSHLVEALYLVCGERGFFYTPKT
T1 sequence (P01308 90-110 limits assumed): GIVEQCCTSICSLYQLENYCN

Row | SMILES | Physical stability of solution at 4 weeks and 5° C.: maximal insulin concentration at which the solution was without precipitation up to 15 mM (3, 6, 9, 12, 15 mM) (human insulin [1]; [3]) [mM] | Physical stability of solution at 4 weeks and 5° C.: maximal insulin concentration at which the solution was without precipitation up to 15 mM (3, 6, 9, 12, 15 mM) (human insulin [1]; [4]) [mM] | Chemical stability at 37° C. (% polymer/week), insulin solution of 3 mM (human insulin [2]; example 2, 3 mM insulin) [% polymer/week] | Chemical stability at 37° C. (% polymer/week), insulin solution of 15 mM (human insulin [2]; example 2, 15 mM insulin) [% polymer/week] | Chemical stability at 37° C. (% polymer/week), insulin solution of 3 mM (human insulin [2]; example 1, 3 mM insulin) [% polymer/week] | Chemical stability at 37° C. (% polymer/week), insulin solution of 15 mM (human insulin [2]; example 1, 15 mM insulin) [% polymer/week]
1 | CC1(C)C2CCC1(C)C(O)C2 (single isomer, unassigned; (+)) [(+)-borneol] | 9 |  |  |  | 0.47 | 0.61
2 | CC1(C)[C@H]2CC[C@](C)(C2)[C@H]1O [(+)-fenchol] | 15 |  |  |  | 0.50 | 0.97
3 | Nc1ncnc2nc[nH]c12 [adenine] |  | 9 | 0.59 | 0.77 |  | 
4 | Oc1ccccc1 [phenol] | 15 | 15 | 0.32 | 0.29 | 0.37 | 0.39
5 | c1ncc2[nH]cnc2n1 [purine] |  | 15 | 0.58 | 0.71 |  | 

Second part, led by results:

Row | Physical stability of solution at 4 weeks and 5° C.: maximal insulin concentration at which the solution was without precipitation up to 15 mM (3, 6, 9, 12, 15 mM) (human insulin [1]; [3]) [mM] | Physical stability of solution at 4 weeks and 5° C.: maximal insulin concentration at which the solution was without precipitation up to 15 mM (3, 6, 9, 12, 15 mM) (human insulin [1]; [4]) [mM] | Chemical stability at 37° C. (% polymer/week), insulin solution of 3 mM (human insulin [2]; example 2, 3 mM insulin) [% polymer/week] | Chemical stability at 37° C. (% polymer/week), insulin solution of 15 mM (human insulin [2]; example 2, 15 mM insulin) [% polymer/week] | SMILES | Chemical stability at 37° C. (% polymer/week), insulin solution of 3 mM (human insulin [2]; example 1, 3 mM insulin) [% polymer/week] | Chemical stability at 37° C. (% polymer/week), insulin solution of 15 mM (human insulin [2]; example 1, 15 mM insulin) [% polymer/week]
6 | 15 |  |  |  | CC1(C)[C@H]2CC[C@H](CO)[C@@H]1C2 (relative stereo) [(−)-trans-myrtanol] |  | 
7 | 9 |  |  |  | CC1(C)C2CCC1(C)C(O)C2 (single isomer, unassigned; (-)) [(−)-borneol] | 0.43 | 0.47
8 | 15 |  |  |  | CC1C(O)CC2CC1C2(C)C (single isomer, unassigned; (-)) [(−)-isopinocampheol] |  | 
9 | 12 |  |  |  | C[C@@H]1[C@@H](O)C[C@H]2C[C@@H]1C2(C)C [(+)-isopinocampheol] |  | 
